# According to patent US10830763B2, “Component analysis device, drug component analysis device, component analysis method, and drug component analysis method” (Hitachi High-Technologies Corporation, priority 2015, dated 2020):
# Test system: liver cells
# Experiment: Distribution ratio into fractions and efflux scoring of a fluorescent drug in cultured liver cells (Steps 0-6, plate reader)
# Format: in vitro ADME, rat
# Description: In this step, liver cells are prepared and cultured for verifying an effect of a drug. An example will be shown below. The preparation of liver cells was made according to an in-situ collagenase perfusion method. The detail is as follows. A rat (5 to 6 weeks old) is subjected to laparotomy under pentobarbital anesthesia, and a catheter is inserted into the portal vein and a pre-perfusion fluid (Hanks' solution not containing Ca2+ and Mg2+ but containing EGTA) is injected.
# Liver cells prepared by the in-situ collagenase perfusion method as described above are suspended in a medium, and the liver cells in the suspension at a density of 5×10^5 cells/mL are seeded on a commercially available collagen-coated culture dish, to conduct two dimensional plane culture (for example, sandwich culture). The seeding density, medium, culture plate 001 are not particularly limited.
# After seeding, culture is started using a CO2 incubator under conditions of 5% CO2 and 37° C. After 18 hours or more elapse, a first medium exchange is performed. Although a medium used for culture from 18 hours after the seeding is not particularly limited, in this example, a medium obtained by excluding FCS from a medium (10% FCS+) to make a medium (herein after medium (FCS−)) and then adding matrigel thereto was used. After that, medium exchange is performed with the medium (FCS−) every 24 hours.
# In this step, cells cultured in Step 0 are conditioned to a condition suitable for a drug assessment. An example will be shown below. The culture supernatant of cells cultured for 4 days in Step 0 is removed, […] of a Hanks' solution is added as a buffer, and then incubation is performed at 37° C. for 10 minutes (FIG. 2, Step 1).
# In this step, a drug solution to be assessed is administered to cells. An example will be shown below. After removing the buffer, 200 μL of 10 μM CDF (fluorescent reagent) is added to a well, incubation is performed at 37° C. for 30 minutes, the well is then retained at 4° C. for 5 minutes (FIG. 2, Step 2). […]
# [1] = Pattern 1, drug incubated 37° C. 30 minutes, fluorescence measurement
substance,measurement,setting,value
Rhodamine 123,"ratio of the bile duct excretion drug amount relative to the whole drug amount taken in the cells (BiRD), (B1-B2)/(C1+C2)",[1],4.92
same,"ratio of the drug amount discharged via a transporter relative to the blood-vessel-side discharge drug amount (RexEMTP), (B2-B3)/B2",[1],52.52
same,"sup fraction (first blood-vessel-side discharge fraction, S1)","Pattern 2: total sum of Steps 4, 5 and 6 taken as 100%, Step 4 Hanks' solution 37° C. 30 minutes, in %",39.29
